The values below are quoted from earlier work in US20230047788A1, “COMPOSITIONS COMPRISING 5-CHOLESTEN-3, 25-DIOL, 3-SULFATE (25HC3S) OR PHARMACEUTICALLY ACCEPTABLE SALT THEREOF AND AT LEAST ONE CYCLIC OLIGOSACCHARIDE” (Virginia Commonwealth University, priority 2016, published 2023).

The conditions of the series: at 25°C; cited from earlier work.

`CC(O)COC[C@H]1O[C@@H]2O[C@H]3[C@H](O)[C@@H](O)[C@@H](O[C@H]4[C@H](O)[C@@H](O)[C@@H](O[C@H]5[C@H](O)[C@@H](O)[C@@H](O[C@H]6[C@H](O)[C@@H](O)[C@@H](O[C@H]7[C@H](O)[C@@H](O)[C@@H](O[C@H]8[C@H](O)[C@@H](O)[C@@H](O[C@H]1[C@H](O)[C@H]2O)O[C@@H]8COCC(C)O)O[C@@H]7COCC(C)O)O[C@@H]6COCC(C)O)O[C@@H]5COCC(C)O)O[C@@H]4COCC(C)O)O[C@@H]3COCC(C)O` (stereo partly drawn) [HP-β-CD, hydroxypropyl β-cyclodextrin]: the solubility in water is listed as 50 % w/v.
